Read-outs that look alike come from different tables or passages of the source.
How the values were obtained:
[1] = test system: fetal hemoglobin gene HBG1; test: HBG1 Nanostring Assay in CD34+ HSPC erythroid differentiation culture; assay type: cell-based, human; conditions: for Nanostring Ymax obs (%): relative to a control compound (C1); for EC50: Homo sapiens, 240 h, HBG1 induction, Day10 of erythroid differentiation
Procedure: A Nanostring Assay was performed to evaluate the ability of the compounds to induce expression of the fetal hemoglobin gene HBG1 in cells. The data are shown as EC50, with stronger inducers having a lower EC50 value and higher YMax.
Forty eight hours later (day −2), the cells were passaged at a density of 200,000 cells/ml (100 ul/well in 96well culture plate) in complete expantion media. The cells were plated at 200,000 cells/ml on day 0 and day 3, 400,000 cells/ml on day 5 in phase 1 erythroid differentiation containing StemSpan with 2.5 U/mL of EPO (R&D systems, 287-TC-500), 0.5 mg/mL of Holo-Transferrin (Sigma, T0665-500MG), 1× Glutamine (Gluta-Max) (Gibco, 35050-061), 5 μL/mL Lipid Mixture (Sigma, L0288-100ML), 50 ng/mL SCF (R&D Systems, 255-SV-050), 10 ng/mL IL-3 (R&D Systems, 203-IL010) and 10 ng/mL Insulin (Sigma, I9278-5ML) all 200 μl per well in 96 well culture plate. Cells were then passaged at 500,000 cells/ml and 200 μl per well on day 7 in phase 2 Erythroid differentiation (Phase 1 erythroid differentiation removing IL-3) until collection day (Day10). The culture conditions were used for both control DMSO as well as experimental treatments.
For all cell pasagings, cells were centrifuged at 300 g for 8 minutes at room temperature and cell number were normalized by MANTIS and Integra VIAFLO 384. All the compounds are diluted in DMSO and added to complete media by Formulatrix FAST and mixed starting from day −2. Cells were counted by Luna cell counter with AOPI Staining Solution (Nexcelom Bioscience, CS2-0106-25 mL) on day-2. Cells were counted by BD FACSCelesta Flow Cytometer with CountBright™ Plus Absolute Counting Beads (Thermal Fisher Scientific, C36995) and SYTOX AADvanced™ Ready Flow™ Reagent (Invitrogen, R37173) for other passages. Cells were cultured at 37° C. and 5% CO2. DMSO concentration was kept at 0.1% to minimize any effects to the cells by the vehicle. […] Compound plates were kept at room temperature to protect from light to avoid multiple freeze and thaw cycle.
On the collection day (Day10), 100K cells were collected and stored at −80° C. For direct hybridization for Nanostring, 100K cell pellet was lyzed in 25 μL of RLT (QIAGEN, 79216) with 1×β-Mercaptoethanol (Gibco, 21985-023) and shaked at 300-500 RPM for 5 minutes at room temperature. Cell lysate was stored in −80° C. after lysis.
All hybridizations were done in a total volume of 15 μL (3 μL of RNA lysate added to master mix of 12 μL probe A/B, capture probe/reporter probes, proteinase K and attenuation oligos suspended in hybridization buffer). Samples were hybridized at 67° C. for 22 hr. Following hybridization, the tripartide complexes were purified, immobilized by nCounter Prep Station and imaged by Digital Analyzer (nCounter MAX/FLEX Analysis System), to generate digital counts of barcodes corresponding to each target in the multiplexed reaction. Labeled barcodes obtained from unamplified extracts were counted at 555 images or field of view (FOV). The barcode counts for each sample were recorded in Reporter Code Count (RCC) files that are imported into nSolver analysis software (provided with CodeSet by NS) for quality control evaluation.
The quality control (QC) metric included limit of detection QC by checking for wells with less than 100 total counts for positive controls.
Hybridization signals were normalized against the ERCC positive controls and CodeSet Content (housekeeping gene). Briefly, this involved first calculating a sample-specific scaling factor by calculating arithmetic mean of geomeans of all ERCC positive controls with counts more than zero in all samples. Then this arithmetic mean was divided by the geometric mean of each lane to generate a lane-specific normalization factor. All negative controls and target-specific signal values were then normalized by multiplying counts values with their sample-specific scaling factor. The acceptable range for scaling factors is 0.3-3.0. […]

[2] = test system: Cullin-3 (CUL3) neddylation; test: AlphaLISA assay for Cullin-3 (CUL3) neddylation in TF 1 cells; assay type: cell-based; conditions: Homo sapiens, TF-1, 3 h, 3 hours treatment
How it was run: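 TF 1 cells in unsupplemented IMDM treated with compound concentrations for 3 h, then lysed. CUL3 neddylation detected by AlphaLISA (biotinylated anti-NEDD8, anti-CUL3 acceptor beads overnight, streptavidin donor beads 1 h); normalized to vehicle (0%) and 1 μM DI-1548 (100%), IC50 from Hill fits.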

[3] = biological target: DCN1 (DCUND1) protein PONY domain (Homo sapiens (Human), UniProt Q96GG9); test: TR-FRET assay, DCN1 binding with FAM-labeled probe
How it was run: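 Binding was read as the TR-FRET ratio between a FAM-tagged inhibitor probe and Tb-labeled biotinylated E. coli-expressed DCN1 PONY domain, measured 1, 5 and 24 h after compound addition. The two setups used 5 nM protein/20 nM FAM-probe or 0.31 nM protein/900 nM total probe (100 nM labeled), in TritonX buffer with 200 mM NaCl.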

[4] = 24 hr after treatment with compound, read-out: TR FRET IC50 24 hr
[5] = read-out: TR FRET IC50 1 hr, 1 hr after treatment with compound
[6] = TR FRET IC50 1 hr (nM), 1 hr after treatment with compound

DCN1 (DCUND1) protein PONY domain, sequence (Q96GG9 60-248): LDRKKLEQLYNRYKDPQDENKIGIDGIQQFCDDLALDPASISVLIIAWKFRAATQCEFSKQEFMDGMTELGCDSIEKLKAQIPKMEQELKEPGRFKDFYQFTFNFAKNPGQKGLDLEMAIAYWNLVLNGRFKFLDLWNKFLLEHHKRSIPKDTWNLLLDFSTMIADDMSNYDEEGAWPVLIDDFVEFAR

Row | SMILES | Nanostring Ymax obs (%) [1] | IC50 [2] [nM] | IC50 [3, 4] [nM] | IC50 [3, 5] [nM] | EC50 [1] [nM] | IC50 [3, 6] [nM]
1 | C=C(CN1C2COCC1C2)C(=O)NCc1nn(-c2ccccc2)c2c1[C@H](c1ccc(F)cc1)[C@H](NC(=O)c1cccc(C(F)(F)F)c1)C(=O)N2CC (mixture of isomers) [Compound I-573] | ++ (Nanostring Ymax greater than 50.0 and less than or equal to 100.0) | ≤ 100 | ≤ 200 | ≤ 200 | – | –
2 | CCN1C(=O)[C@@H](NC(=O)c2cccc(C(F)(F)F)c2)[C@@H](c2ccc(F)cc2)c2c([C@H](CCO)NC#N)nn(-c3ccccc3)c21 (mixture of isomers) [Compound I-576] | + (Nanostring Ymax greater than or equal to 0.0 and less than or equal to 50.0) | ≤ 100 | ≤ 200 | – | > 1000 | 200 to 1000
3 | C=C(CN1C2CCC1COC2)C(=O)NCc1nn(-c2ccccc2)c2c1[C@H](c1ccc(F)cc1)[C@H](NC(=O)c1cccc(C(F)(F)F)c1)C(=O)N2CC (mixture of isomers) [Compound I-613] | +++ (Nanostring Ymax greater than 100.0) | ≤ 100 | ≤ 200 | ≤ 200 | – | –
4 | C=C(CN1CCN(C2COC2)CC1)C(=O)NCc1nn(-c2ccccc2)c2c1[C@@H](c1ccc(F)cc1)[C@H](NC(=O)c1cccc(C(F)(F)F)c1)C(=O)N2CC (racemic) [Compound I-40] | ++ (Nanostring Ymax greater than 50.0 and less than or equal to 100.0) | ≤ 100 | ≤ 200 | ≤ 200 | – | –
5 | C=C(CN(C)C1COC1)C(=O)NCc1nn(-c2ccccc2)c2c1[C@H](c1ccc(F)cc1)[C@H](NC(=O)c1cccc(C(F)(F)F)c1)C(=O)N2CC (racemic) [Compound I-102] | ++ (Nanostring Ymax greater than 50.0 and less than or equal to 100.0) | ≤ 100 | ≤ 200 | ≤ 200 | – | –
6 | CCN1C(=O)[C@@H](NC(=O)c2cccc(C(F)(F)F)c2)[C@@H](c2ccc(F)cc2)c2c(CNC/C=C/C(=O)OC)nn(-c3ccccc3)c21 (racemic) [Compound I-127, rac-methyl I-4-((((4R,5R)-7-ethyl-4-(4-fluorophenyl)-6-oxo-1-phenyl-5-(3-(trifluoromethyl)benzamido)-4,5,6,7-tetrahydro-1H-pyrazolo[3,4-b]pyridine-3-yl)methyl)amino)but-2-enoate] | ++ (Nanostring Ymax greater than 50.0 and less than or equal to 100.0) | ≤ 100 | ≤ 200 | – | 100 to 1000 | ≤ 200
7 | CCN1C(=O)[C@@H](NC(=O)c2cccc(C(F)(F)F)c2)[C@@H](c2ccc(F)cc2)c2c(CN(C#N)CCCO)nn(-c3ccccc3)c21 (racemic) [Compound I-246, N-[rac-(4S,5S)-3-[[cyano(3-hydroxypropyl)amino]methyl]-7-ethyl-4-(4-fluorophenyl)-6-oxo-1-phenyl-4,5-dihydropyrazolo[3,4-b]pyridine-5-yl]-3-(trifluoromethyl)benzamide] | ++ (Nanostring Ymax greater than 50.0 and less than or equal to 100.0) | 100 to 1000 | 200 to 1000 | – | > 1000 | 200 to 1000
8 | CCN1C(=O)[C@@H](NC(=O)c2cccc(C(F)(F)F)c2)[C@@H](c2ccc(F)cc2)c2c(CN(C)C/C=C/C(=O)OC)nn(-c3ccccc3)c21 (racemic) [Compound I-250, rac-methyl I-4-((((4R,5R)-7-ethyl-4-(4-fluorophenyl)-6-oxo-1-phenyl-5-(3-(trifluoromethyl)benzamido)-4,5,6,7-tetrahydro-1H-pyrazolo[3,4-b]pyridine-3-yl)methyl)(methyl)amino)but-2-enoate] | ++ (Nanostring Ymax greater than 50.0 and less than or equal to 100.0) | ≤ 100 | ≤ 200 | – | > 1000 | 200 to 1000
